Legend:
Format in all cases: in vivo
[1] = tested on: goosegrass (Eleusine indica); test: Test A1 postemergence, goosegrass; settings: for Plant response rating, Goosegrass: Postemergence
In short: (§1)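 Pre: seeds in loam/sand blend, directed soil spray. Post: potted plants, same soil, 2–10 cm, 1–2 leaf stage. Chemicals in non-phytotoxic solvent + surfactant for both.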

[2] = tested on: Foxtail, Giant (giant foxtail, Setaria faberi); test: Test A1 postemergence, Foxtail, Giant; settings: for Plant response rating, Foxtail, Giant: Postemergence
In short: as §1

[3] = tested on: Ryegrass, Italian (Italian ryegrass, Lolium multiflorum); test: Test A1 preemergence, Ryegrass, Italian
In short: (§2)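 Test compounds were formulated in a non-phytotoxic solvent mixture containing a surfactant. For preemergence, seeds sown in a loam soil–sand blend received a directed soil spray. For postemergence, potted plants in the same soil, 2 to 10 cm tall at the one- to two-leaf stage, were sprayed.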

[4] = tested on: Ryegrass, Italian (Italian ryegrass, Lolium multiflorum); test: Test A1 postemergence, Ryegrass, Italian; settings: for Plant response rating, Ryegrass, Italian: Postemergence
In short: as §1

[5] = tested on: Pigweed, Palmer (palmer amaranth, palmer pigweed, Amaranthus palmeri); test: Test A1 preemergence, Pigweed, Palmer
In short: as §2

[6] = tested on: blackgrass (Alopecurus myosuroides); test: Test A1 postemergence, blackgrass; settings: Postemergence, 0 to 100 scale (0 no effect, 100 complete control)
In short: as §1

kochia (Bassia scoparia) = test: Test A1 preemergence, kochia
In short: as §2

[7] = tested on: ragweed (common ragweed, Ambrosia artemisiifolia); test: Test A1 postemergence, ragweed; settings: for Plant response rating, Ragweed: Postemergence
In short: as §2

[8] = 31 g ai/ha, 0 to 100 scale (0 no effect, 100 complete control), 10 days
[9] = 31 g ai/ha, 0 to 100 scale (0 no effect, 100 complete control)
[10] = 125 g ai/ha, 0 to 100 scale, 0 no effect, 100 complete control
[11] = 31 g ai/ha, postemergence, 0 to 100 scale (0 no effect, 100 complete control)

Row | Compound | Plant response rating, Goosegrass [1, 8] | Plant response rating, Goosegrass ([1]; 125 g ai/ha, 0 to 100 scale) | Plant response rating, Foxtail, Giant [2, 8] | Plant response rating, Foxtail, Giant ([2]; 125 g ai/ha, 0 to 100 scale) | Plant response rating, Ryegrass, Italian [3, 9] | Plant response rating, Ryegrass, Italian [3, 10] | Plant response rating, Ryegrass, Italian [4, 8] | Plant response rating, Ryegrass, Italian ([4]; 125 g ai/ha, 0 to 100 scale) | Plant response rating, Pigweed, Palmer [5, 9] | Plant response rating, Pigweed, Palmer [5, 10] | Plant response rating, Blackgrass ([6]; 31 g ai/ha, 10 days) | Plant response rating, Blackgrass ([6]; 125 g ai/ha) | Plant response rating, Kochia (kochia (Bassia scoparia); [9]) | Plant response rating, Kochia (kochia (Bassia scoparia); [10]) | Plant response rating, Ragweed [7, 8] | Plant response rating, Ragweed ([7]; 125 g ai/ha, 0 to 100 scale) | Goosegrass plant response rating [1, 11] | Foxtail, Giant plant response rating [2, 11] | Ryegrass, Italian plant response rating [4, 11] | Ragweed plant response rating [7, 11]
1 | Cc1c(C(=O)N2CCC(F)(F)CC2)cc(N(COC(=O)C(C)(C)C)S(=O)(=O)C(F)(F)F)c(C)c1C [Compound 360] | 0 | 40 | 0 | 0 | 0 | 30 | 0 | 0 | 0 | 40 | 0 | 0 | 0 | 30 | 70 | 90 | – | – | – | –
2 | Cc1cc(C)c(C2=NOC3OCCC23)cc1NS(=O)(=O)C(F)(F)F (centres unmarked) [Compound 349] | 90 | 90 | 30 | 90 | 70 | 80 | 60 | 90 | 100 | 100 | 40 | 70 | 80 | 100 | 70 | 90 | – | – | – | –
3 | CCC1ON=C(c2cc(NS(=O)(=O)C(F)(F)F)c(C)cc2C)C1CC (centres unmarked) [Compound 343] | 40 | 90 | 0 | 30 | 60 | 100 | 20 | 80 | 40 | 90 | 10 | 30 | 30 | 70 | 20 | 80 | – | – | – | –
4 | Cc1cc(C)c(N(COC(=O)C(C)(C)C)S(=O)(=O)C(F)(F)F)cc1C1=NOC2COCC12 (centres unmarked) [Compound 301] | 0 | 60 | 0 | 60 | 20 | 90 | 0 | 60 | 10 | 40 | 0 | 0 | 30 | 80 | 60 | 70 | – | – | – | –
5 | Cc1c(NS(=O)(=O)C(F)(F)F)cc(C(=O)N2CCC(F)(F)CC2)c(C)c1C [Compound 357] | 0 | 70 | 0 | 20 | 0 | 30 | 20 | 20 | 40 | 100 | 0 | 0 | 20 | 40 | 80 | 80 | – | – | – | –
6 | COc1cc(C)c(NS(=O)(=O)C(F)(F)F)cc1C1=NOC2CCCC12 (centres unmarked) [Compound 312] | 0 | 0 | 0 | 10 | 0 | 40 | 0 | 20 | 0 | 0 | 0 | 0 | 0 | 0 | 0 | 40 | – | – | – | –
7 | CCOC(=O)N(c1cc(C(=O)N2CCC(c3ccccc3)CC2)c(C)cc1C)S(=O)(=O)C(F)(F)F [Compound 365] | 0 | 0 | 0 | 0 | 0 | 30 | 0 | 10 | 30 | 30 | 0 | 30 | 0 | 0 | 0 | 30 | – | – | – | –
8 | CCOC(=O)N(c1cc(C(=O)N2CCOCC2)c(C)c(C)c1C)S(=O)(=O)C(F)(F)F [Compound 325] | 0 | 90 | 30 | 90 | 40 | 90 | 0 | 60 | 80 | 100 | 0 | 90 | 20 | 70 | 0 | 70 | – | – | – | –
9 | COc1cc(C)c(C2=NOC3(CCCC3)C2)cc1NS(=O)(=O)C(F)(F)F [Compound 304] | 0 | 0 | 0 | 50 | 40 | 50 | 0 | 0 | 0 | 20 | – | – | 0 | 0 | 0 | 30 | – | – | – | –
10 | Cc1c(C(=O)N2CCC(Cl)CC2)cc(N(COC(=O)C(C)(C)C)S(=O)(=O)C(F)(F)F)c(C)c1C [Compound 359] | 0 | 20 | 0 | 60 | 0 | 0 | 0 | 0 | 0 | 20 | 0 | 0 | 0 | 0 | 30 | 70 | – | – | – | –
11 | CCC1CC(c2cc(N(COC(=O)C(C)(C)C)S(=O)(=O)C(F)(F)F)c(C)cc2C)=NO1 (centres unmarked) [Compound 376] | – | 50 | – | 20 | 0 | 30 | – | 0 | 0 | 40 | 0 | 50 | 0 | 80 | – | 40 | 0 | 0 | 0 | 20
12 | Cc1c(C(=O)N2CCCCC2)cc(NS(=O)(=O)C(F)(F)F)c(Cl)c1F [Compound 333] | 0 | 30 | 10 | 30 | 30 | 50 | 0 | 0 | 90 | 100 | 0 | 30 | 20 | 80 | 0 | 80 | – | – | – | –
13 | CCOC(=O)N(c1cc(C(=O)N2CCCCC2)c(C)c(C)c1C)S(=O)(=O)C(F)(F)F [Compound 330, Ethyl N-[(trifluoromethyl)sulfonyl]-N-[2,3,4-trimethyl-5-(1-piperidinylcarbonyl)phenyl]carbamate] | 0 | 40 | 20 | 80 | 0 | 90 | 0 | 0 | 70 | 80 | 0 | 40 | 10 | 40 | 50 | 80 | – | – | – | –
14 | COC(=O)OCN(c1cc(C2=NOC3CCCC23)c(C)cc1C)S(=O)(=O)C(F)(F)F (centres unmarked) [Compound 315] | 80 | 80 | 0 | 20 | 70 | 100 | 10 | 70 | 100 | 90 | 0 | 0 | 0 | 60 | 20 | 80 | – | – | – | –
15 | Cc1cc(F)c(NS(=O)(=O)C(F)(F)F)cc1C1=NOC2(CCCC2)C1 [Compound 303] | 0 | 70 | 30 | 80 | 50 | 100 | 0 | 60 | 20 | 20 | – | – | 20 | 20 | 30 | 80 | – | – | – | –

From patent publication US20230278972A1, “SUBSTITUTED HALOALKYL SULFONANILIDE HERBICIDES” (FMC Corporation, priority 2020, published 2023)
